Measurements published in PMC4324418 (ACS Chemical Neuroscience, 2014).

Columns and labels:
wild-type mice = assay: Cue-dependent fear conditioning; assay type: in vivo, mouse; settings: 3–30 mg/kg prior to the conditioning session
[1] = rat (data not shown)

Cc1nnc2sc(C(=O)NCc3ccc(S(=O)(=O)C(F)(F)F)cc3)c(N)c2c1C [VU0467154, 5-amino-3,4-dimethyl-N-(4-((trifluoromethyl)sulfonyl)benzyl)thieno[2,3-c]pyridazine-6-carboxamide]
acquisition of cue-dependent fear conditioning (wild-type mice): enhanced acquisition of cue-dependent fear conditioning | biliary and urinary excretion of the parent compound [1]: Negligible
